In ChEMBL document CHEMBL1201862, “PubChem BioAssay data set” (2004):
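Five concentrations, 48 hours, 96-well plates. GI50 = concentration required for 50% inhibition of growth.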 Calls of active or inactive are those of the source. No stated cut-off is given here; in the data, active = GI50 up to about 1.1 µM and inactive = higher.

Tests used:
Assay in all cases: NCI-60 cell line screen, 48 h
786-0 = test system: 786-0
A549 = test system: A549
CCRF-CEM = test system: CCRF-CEM
COLO 205 = test system: COLO 205
DLD-1 = test system: DLD-1
DMS-114 = test system: DMS-114
DMS-273 = test system: DMS-273
EKVX = test system: EKVX
HCC 2998 = test system: HCC 2998
HCT-116 = test system: HCT-116
HL-60 = test system: HL-60
HOP-18 = test system: HOP-18
HOP-62 = test system: HOP-62
HT-29 = test system: HT-29
IGROV-1 = test system: IGROV-1
K562 = test system: K562
KM-20L2 = test system: KM-20L2
KM12 = test system: KM12
LOX IMVI = test system: LOX IMVI
LXFL 529 = test system: LXFL 529
M14 = test system: M14
M19-MEL = test system: M19-MEL
MOLT-4 = test system: MOLT-4
NCI-H226 = test system: NCI-H226
NCI-H23 = test system: NCI-H23
NCI-H460 = test system: NCI-H460
NCI-H522 = test system: NCI-H522
OVCAR-3 = test system: OVCAR-3
OVCAR-4 = test system: OVCAR-4
OVCAR-8 = test system: OVCAR-8
RPMI-8226 = test system: RPMI-8226
RXF 393 = test system: RXF 393
SF-268 = test system: SF-268
SF-295 = test system: SF-295
SF-539 = test system: SF-539
SK-MEL-28 = test system: SK-MEL-28
SK-MEL-5 = test system: SK-MEL-5
SK-OV-3 = test system: SK-OV-3
SN12C = test system: SN12C
SNB-19 = test system: SNB-19
SNB-75 = test system: SNB-75
SNB-78 = test system: SNB-78
SW-620 = test system: SW-620
TK-10 = test system: TK-10
U-251 = test system: U-251
UACC-62 = test system: UACC-62
A498 = test system: A498
ACHN = test system: ACHN
HCT-15 = test system: HCT-15
HOP-92 = test system: HOP-92
Malme-3M = test system: Malme-3M
SK-MEL-2 = test system: SK-MEL-2
UACC-257 = test system: UACC-257
UO-31 = test system: UO-31
XF498 = test system: XF498
CAKI-1 = test system: CAKI-1
SR = test system: SR

`COc1ccccc1NC(=O)CC(=O)NNCC(=O)Nc1nc(-c2ccccc2)cs1` was tested, and the GI50 (786-0) was > 100 µM (inactive), the GI50 (A549) was > 100 µM (inactive) and the GI50 (CCRF-CEM) was > 100 µM (inactive). For the same compound, the GI50 (COLO 205) was > 100 µM (inactive), the GI50 (DLD-1) was > 100 µM (inactive) and the GI50 (DMS-114) was > 100 µM (inactive). For the same compound, the GI50 (DMS-273) was > 100 µM (inactive), the GI50 (EKVX) was > 100 µM (inactive) and the GI50 (HCC 2998) was 4.1 µM (inactive). For the same compound, the GI50 (HCT-116) was > 100 µM (inactive), the GI50 (HL-60) was > 100 µM (inactive) and the GI50 (HOP-18) was > 100 µM (inactive). For the same compound, the GI50 (HOP-62) was > 100 µM (inactive), the GI50 (HT-29) was > 100 µM (inactive) and the GI50 (IGROV-1) was > 100 µM (inactive). For the same compound, the GI50 (K562) was > 100 µM (inactive), the GI50 (KM-20L2) was > 100 µM (inactive) and the GI50 (KM12) was > 100 µM (inactive). The GI50 (LOX IMVI) was > 100 µM (inactive), the GI50 (LXFL 529) was > 100 µM (inactive) and the GI50 (M14) was > 100 µM (inactive). For the same compound, the GI50 (M19-MEL) was > 100 µM (inactive), the GI50 (MOLT-4) was > 100 µM (inactive) and the GI50 (NCI-H226) was 40.6 µM (inactive). For the same compound, the GI50 (NCI-H23) was > 100 µM (inactive), the GI50 (NCI-H460) was > 100 µM (inactive) and the GI50 (NCI-H522) was > 100 µM (inactive). For the same compound, the GI50 (OVCAR-3) was > 100 µM (inactive), the GI50 (OVCAR-4) was > 100 µM (inactive) and the GI50 (OVCAR-8) was > 100 µM (inactive). For the same compound, the GI50 (RPMI-8226) was > 100 µM (inactive), the GI50 (RXF 393) was > 100 µM (inactive) and the GI50 (SF-268) was > 100 µM (inactive). For the same compound, the GI50 (SF-295) was > 100 µM (inactive), the GI50 (SF-539) was > 100 µM (inactive) and the GI50 (SK-MEL-28) was > 100 µM (inactive). For the same compound, the GI50 (SK-MEL-5) was > 100 µM (inactive), the GI50 (SK-OV-3) was > 100 µM (inactive) and the GI50 (SN12C) was > 100 µM (inactive). For the same compound, the GI50 (SNB-19) was > 100 µM (inactive), the GI50 (SNB-75) was > 100 µM (inactive) and the GI50 (SNB-78) was > 100 µM (inactive). The GI50 (SW-620) was > 100 µM (inactive), the GI50 (TK-10) was > 100 µM (inactive) and the GI50 (U-251) was > 100 µM (inactive). The GI50 (UACC-62) was > 100 µM (inactive).
For `C[C@@H](NC1CCCC[C@H]1O)c1ccccc1` (stereo partly specified), the GI50 (786-0) was > 100 µM (inactive), the GI50 (A498) was > 100 µM (inactive) and the GI50 (A549) was > 100 µM (inactive). For the same compound, the GI50 (ACHN) was > 100 µM (inactive), the GI50 (CCRF-CEM) was > 100 µM (inactive) and the GI50 (COLO 205) was > 100 µM (inactive). For the same compound, the GI50 (DLD-1) was > 100 µM (inactive), the GI50 (DMS-273) was > 100 µM (inactive) and the GI50 (EKVX) was > 100 µM (inactive). For the same compound, the GI50 (HCC 2998) was > 100 µM (inactive), the GI50 (HCT-116) was > 100 µM (inactive) and the GI50 (HCT-15) was > 100 µM. The GI50 (HL-60) was > 100 µM (inactive), the GI50 (HOP-18) was > 100 µM (inactive) and the GI50 (HOP-62) was > 100 µM (inactive). For the same compound, the GI50 (HOP-92) was > 100 µM (inactive), the GI50 (HT-29) was > 100 µM (inactive) and the GI50 (IGROV-1) was > 100 µM (inactive). For the same compound, the GI50 (K562) was > 100 µM (inactive), the GI50 (KM-20L2) was > 100 µM (inactive) and the GI50 (KM12) was > 100 µM (inactive). The GI50 (LOX IMVI) was > 100 µM (inactive), the GI50 (M14) was > 100 µM (inactive) and the GI50 (M19-MEL) was > 100 µM (inactive). The GI50 (MOLT-4) was > 100 µM (inactive), the GI50 (Malme-3M) was > 100 µM (inactive) and the GI50 (NCI-H226) was > 100 µM (inactive). For the same compound, the GI50 (NCI-H23) was > 100 µM (inactive), the GI50 (NCI-H460) was > 100 µM (inactive) and the GI50 (NCI-H522) was > 100 µM (inactive). The GI50 (OVCAR-3) was > 100 µM (inactive), the GI50 (OVCAR-4) was > 100 µM (inactive) and the GI50 (OVCAR-8) was > 100 µM (inactive). The GI50 (RPMI-8226) was > 100 µM (inactive), the GI50 (RXF 393) was > 100 µM (inactive) and the GI50 (SF-268) was > 100 µM (inactive). The GI50 (SF-295) was > 100 µM (inactive), the GI50 (SF-539) was > 100 µM (inactive) and the GI50 (SK-MEL-28) was > 100 µM (inactive). The GI50 (SK-MEL-2) was > 100 µM (inactive), the GI50 (SK-MEL-5) was > 100 µM (inactive) and the GI50 (SK-OV-3) was > 100 µM (inactive). The GI50 (SN12C) was > 100 µM (inactive), the GI50 (SNB-19) was > 100 µM (inactive) and the GI50 (SNB-75) was 77.6 µM (inactive). The GI50 (SNB-78) was > 100 µM (inactive), the GI50 (SW-620) was > 100 µM (inactive) and the GI50 (TK-10) was > 100 µM (inactive). For the same compound, the GI50 (U-251) was > 100 µM (inactive), the GI50 (UACC-257) was > 100 µM (inactive) and the GI50 (UACC-62) was > 100 µM (inactive). For the same compound, the GI50 (UO-31) was > 100 µM (inactive) and the GI50 (XF498) was > 100 µM (inactive).
In the case of `C/C(=C\Cc1cc(O)ccc1O)CCc1c(C)c(O)c(O)c(C=O)c1C` [PANICEIN C], the GI50 (786-0) is reported as 25.6 µM (inactive), the GI50 (A498) is reported as 49.2 µM (inactive) and the GI50 (A549) is reported as 30.4 µM (inactive). For the same compound, the GI50 (ACHN) was 20.3 µM (inactive), the GI50 (CAKI-1) was 26.7 µM (inactive) and the GI50 (CCRF-CEM) was 3.28 µM (inactive). The GI50 (COLO 205) was 18.6 µM (inactive), the GI50 (DLD-1) was 21.1 µM (inactive) and the GI50 (DMS-114) was 18 µM (inactive). For the same compound, the GI50 (DMS-273) was 27.5 µM (inactive), the GI50 (EKVX) was 36.1 µM (inactive) and the GI50 (HCC 2998) was 47.9 µM (inactive). For the same compound, the GI50 (HCT-116) was 19.1 µM (inactive), the GI50 (HCT-15) was 31.4 µM and the GI50 (HL-60) was > 100 µM (inactive). For the same compound, the GI50 (HOP-18) was 18.7 µM (inactive), the GI50 (HOP-92) was 15.7 µM (inactive) and the GI50 (HT-29) was 29.2 µM (inactive). The GI50 (IGROV-1) was 17.1 µM (inactive), the GI50 (K562) was > 100 µM (inactive) and the GI50 (KM-20L2) was 37.5 µM (inactive). The GI50 (KM12) was 20.3 µM (inactive), the GI50 (LXFL 529) was 9.64 µM (inactive) and the GI50 (M14) was 25.5 µM (inactive). The GI50 (M19-MEL) was 17.7 µM (inactive), the GI50 (MOLT-4) was 17.1 µM (inactive) and the GI50 (Malme-3M) was 32.9 µM (inactive). For the same compound, the GI50 (NCI-H226) was 34.5 µM (inactive), the GI50 (NCI-H23) was 18.4 µM (inactive) and the GI50 (NCI-H460) was 23.8 µM (inactive). For the same compound, the GI50 (NCI-H522) was 5.24 µM (inactive), the GI50 (OVCAR-3) was 21.2 µM (inactive) and the GI50 (OVCAR-4) was 26.5 µM (inactive). The GI50 (OVCAR-8) was 17.9 µM (inactive), the GI50 (RPMI-8226) was 17.4 µM (inactive) and the GI50 (RXF 393) was 16.1 µM (inactive). The GI50 (SF-268) was 27 µM (inactive), the GI50 (SF-295) was 25.4 µM (inactive) and the GI50 (SF-539) was 18.4 µM (inactive). For the same compound, the GI50 (SK-MEL-28) was 18.1 µM (inactive), the GI50 (SK-MEL-2) was 23.2 µM (inactive) and the GI50 (SK-MEL-5) was 15.5 µM (inactive). For the same compound, the GI50 (SK-OV-3) was 26.7 µM (inactive), the GI50 (SN12C) was 26.7 µM (inactive) and the GI50 (SNB-19) was 35.2 µM (inactive). The GI50 (SNB-75) was 33.3 µM (inactive), the GI50 (SR) was 7.38 µM (inactive) and the GI50 (SW-620) was 35.6 µM (inactive). For the same compound, the GI50 (TK-10) was 48.2 µM (inactive), the GI50 (U-251) was 18.6 µM (inactive) and the GI50 (UO-31) was 28.2 µM (inactive). The GI50 (XF498) was 20 µM (inactive).
